A short description of series [1]: Pharmacokinetic study after oral administration in rats. The format is in vivo. The protocol: All the animal procedures were approved by the animal care and use committee of Kyungpook National University (Daegu, Korea; Approval No. KNU-2014-0097 and KNU-2019-0004). Male Sprague–Dawley rats weighing 250–270 g (8 weeks old) were purchased from Samtako Bio Korea (Osan, Kyunggido, Korea). When the rats arrived, they were housed with a 12 h light/dark cycle. Food and water were supplied ad libitum for 1 week prior to the animal experiment. […] The femoral vein, femoral arteries, and bile ducts of the rats were cannulated with polyethylene tubes (PE50 or PE10, Jungdo, Seoul, Korea) under anesthesia with isoflurane […] on the warming surgery table (YTK corp. Seoul, Korea), and the rats were remained on the warming table to maintain body temperature during the pharmacokinetic study. […] The prepared berberine suspension or berberine formulation was administered to rats via oral gavage. Blood samples (approximately 150 µL) were taken via the femoral artery at 0, 0.25, 0.5, 1, 1.5, 2, 4, 8, and 12 h after the oral administration, and pre-warmed saline (approximately 150 µL) was injected into the femoral vein to compensate the blood loss. The blood samples were centrifuged at 10,000× g for 1 min at 4 °C. Bile and urine samples were collected every 4 h for 12 h. After 12 h, the bile and urine samples were pooled and weighed. Aliquots (50 µL each) of plasma, urine, and bile samples were stored at −80 °C for the analysis of berberine and its metabolites. Plasma, urine, and bile samples (50 µL) were added to 150 µL of methanol containing propranolol (10 ng/mL), vortex-mixed for 15 min, and centrifuged at 10,000× g for 5 min at 4 °C. An aliquot (10 µL) of the supernatant was injected into the LC–MS/MS system. Agilent 6430 Triple Quad LC/MS system (Agilent, Wilmington, DE, USA) coupled with an Agilent 1260 series HPLC system was used for the analysis of berberine and its metabolites using the modified method of Kwon et al.. The separation was performed on a Synergy polar RP column (2.0 mm × 150 mm, 4 μm; Phenomenex, Torrance, CA, USA) using a gradient elution of the mobile phase that consisted of methanol and water with 0.1% formic acid at a flow rate of 0.2 mL/min. The composition of the mobile phase was as follows: 55% methanol for 0–2.5 min, 70% methanol for 3–5 min, 55% methanol for 5.3–12 min. The retention time was 3.01 min and 3.53 min for thalifendine-glucuronide and berberrubine-glucuronide, 6.30 min for thalifendine-sulfate, 7.79 min for berberine, 5.47 min for thalifendine, 6.38 min for berberrubine, and 2.53 min for propranolol. Mass spectra were recorded by electrospray ionization with a positive mode. Quantification was carried out using MRM at m/z 498.1 → 322.1 for thalifendine-glucuronide and berberrubine-glucuronide, m/z 402.0 → 322.1 for thalifendine-sulfate, m/z 336.1 → 320.0 for berberine, m/z 322.1 → 307.1 for thalifendine and berberrubine, and m/z 260.0 → 116.0 for propranolol. […] The thalifendine-glucuronide, berberrubine-glucuronide, and thalifendine-sulfate were relatively quantitated using berberine’s standard curve, since the authentic standard compounds were not available. The pharmacokinetic parameters were calculated by non-compartmental analysis using the WinNonlin Version 5.1 software (Pharsight, Certara, NJ, USA). Statistical analysis was performed using SPSS for Windows (version 24.0; IBM Corp., Armonk, NY, USA).

Series [2] concerns β-Glucuronidase and sulfatase. As to the kind of experiment: Glucuronidase and sulfatase treatment (bile samples, stability of standards). In kind it is in vitro ADME, Helix pomatia. The protocol:
The reaction was terminated by adding 150 µL of ice-cold methanol containing propranolol (10 ng/mL), vortex-mixed for 5 min, and centrifuged at 10,000× g for 5 min at 4 °C. An aliquot (10 µL) of the supernatant was injected into the LC–MS/MS system.

Series [3] has as its system human colon cancer HCT-8 cells. Further details: method as in PMID 23682426. The settings on record: cited from earlier work.
On the set-up of series [4]: method as in PMID 15531889. Conditions: 32 hypercholesterolemic patients; cited from earlier work.
Series [5] relates to Caco-2 cells. As to the kind of experiment: Caco-2 permeability / transport of berberine and berberine formulation. The format is in vitro ADME. The protocol: (§1) The cells were grown for 21 days and the culture medium was changed every 2 days. The integrity of the cell monolayers was evaluated prior to the transport experiments by measuring the transepithelial electrical resistance (TEER). […] To characterize the absorption transport of berberine in Caco-2 cells, the apical to basal (A to B) and basal to apical (B to A) transport of berberine was measured. […] The insert was then transferred to a well containing fresh HBSS medium every 15 min for 1 h. […] The transport medium on the apical side was replaced with 0.4 mL of fresh incubation medium every 15 min for 1 h. […] The insert was then transferred to a well containing fresh HBSS medium every 15 min for 1 h. […] The transport medium on the apical side was replaced with 0.4 mL of fresh incubation medium every 15 min for 1 h. […] The TEER values were monitored before and after the transport experiments with berberine formulation using an epithelial TEER meter (World Precision Instruments, Sarasota, FL, USA). A 100 μL aliquot of each sample was added to a 100 μL aliquot of ice-cold methanol containing 10 ng/mL of propranolol (IS). After vortexing and centrifuging the samples at 16,000× g for 10 min, the supernatant was injected directly into the LC-MS/MS system.
A general note: Passage across Caco-2 layers is used to estimate intestinal permeability.

Experiment in series [6]: as above
The format is in vitro ADME. Conditions: human. The protocol: as §1

For series [7] the following is noted: cited from earlier work.
For series [8] the following is noted: rats; cited from earlier work.
Series [9] concerns Caco-2 cells. Put plainly: cells. The protocol: Caco-2 cells were seeded onto 96-well plates (BD-Corning, Corning, NY, USA) at a density of 1 × 10^5 cells/well, and cultured for 24 h at 37 °C in a 5% CO2 incubator. […] As a control group, berberine was treated at concentrations of 0, 1, 5, 10, 50, 100, 500, and 1000 μM. After 24 h of treatment, 20 μL of CellTiter 96 aqueous one solution from a cell proliferation assay kit (Promega, Madison, WI, USA) was added to the culture medium and incubated for 1 h. The absorbance rate of the reaction mixture was measured at 492 nm using an Infiniti M200Pro microplate reader (Tecan, Zurich, Switzerland).

[10] abbreviates: after Berberine Formulation PO 50 mg/kg, rats.
Setting [11] is: after Berberine PO 50 mg/kg, rats.
[12] abbreviates: male, Sprague–Dawley, rat, plasma, po, 50 mg/kg, plasma, after Berberine Formulation PO 50 mg/kg, rats.
[13] abbreviates: male, Sprague–Dawley, rat, plasma, po, 50 mg/kg, plasma, after Berberine Formulation PO 50 mg/kg, rats, read-out: Tmax (converted).
Where [14] appears, read: male, Sprague–Dawley, rat, plasma, po, 50 mg/kg, plasma, after Berberine PO 50 mg/kg, rats.
Where [15] appears, read: male, Sprague–Dawley, rat, plasma, po, 50 mg/kg, plasma, after Berberine PO 50 mg/kg, rats, read-out: Tmax (converted).
Where [16] appears, read: 8 h of incubation, 37 °C, pH 5.0.
The mark [17] stands for this setting: berberine formulation group compared with berberine group, PO 50 mg/kg, rats.

Read-outs that look alike come from different tables or passages of the source.

What is called AUC is the area under the concentration-time curve, a measure of exposure. As usually defined, the Cmax is the maximum level reached in the sampled fluid or tissue. A word on the Tmax: it is the time from dosing to the highest level. In the case of `COc1ccc2cc3[n+](cc2c1O)CCc1cc2c(cc1-3)OCO2` [Berberrubine], the “Metabolic ratio (metabolite AUC to berberine AUC)” value is reported as 0.00% in series [1] (setting [10]) and 0.04% in series [1] (setting [11]). The “Xb,12h (amount excreted into bile for 12 h)” value (“Xb,12h” below) in series [1] (setting [10]) and in series [1] (setting [11]) was 0 ng throughout. Moreover, the “Xu,12h (amount excreted into urine for 12 h)” value (from here on “Xu,12h”) in [1] (setting [10]) is reported as 67.78 ± 11.89 ng; in series [1] (setting [11]), 22.80 ± 15.84 ng. Further, the results for the area under the curve (AUC) in series [1] (setting [12]) and in [1] (setting [14]) were 1.73 ng·h/mL and 1.34 ng·h/mL, respectively. In addition, the maximum concentration (Cmax) in series [1] (setting [12]) is 0.31 ± 0.18 ng/mL; in series [1] (setting [14]), 0.16 ± 0.03 ng/mL. For the same compound, the Tmax in [1] (setting [13]) was 0.917 h; in series [1] (setting [15]), 4.17 h. For the same compound, in [2] (setting [16]), the “degraded by glucuronidase and sulfatase treatment” value is given as “more than 94%”.
For the compound `COc1c(O)ccc2cc3[n+](cc12)CCc1cc2c(cc1-3)OCO2` [Thalifendine], the “Xb,12h” value in series [1] (setting [10]) came to 1871 ± 1092 ng; in [1] (setting [11]), 281.5 ± 250.2 ng. Besides, the “Xu,12h” value worked out at 7209 ± 2632 ng in [1] (setting [10]) and 199.3 ± 76.1 ng in series [1] (setting [11]). Moreover, the “Metabolic ratio (metabolite AUC to berberine AUC)” value in series [1] (setting [11]) is recorded as 0.09%. In addition, the “fold increase in AUC” value in [1] (setting [17]) is given as 9.3 fold. Further, the AUC in series [1] (setting [12]) is 28.1 ng·h/mL; in series [1] (setting [14]), 3.04 ng·h/mL. Further, the Cmax in [1] (setting [12]) amounted to 5.45 ± 3.12 ng/mL; in [1] (setting [14]), 0.64 ± 0.19 ng/mL. Besides, the Tmax in series [1] (setting [13]) was 10.7 h; in series [1] (setting [15]), 7 h. Besides, the “stability after glucuronidase and sulfatase treatment” value in series [2] (setting [16]) is listed as “stable”. Besides, in [2] (rat bile collected 12 h after oral berberine), the “increase of peak after glucuronidase and sulfatase treatment” value was 10.6 fold.
One may read the IC50 as the midpoint of a concentration-inhibition curve. As a reminder, the efflux ratio is the permeability from basolateral to apical divided by that in the opposite direction, in the common usage. Broadly, the Km is the substrate concentration at which the rate is half of its maximum. The term bioavailability denotes dose-corrected exposure relative to a reference, in per cent. Turning to `COc1ccc2cc3[n+](cc2c1OC)CCc1cc2c(cc1-3)OCO2` [Berberine], in series [1] (setting [10]), the “Xb,12h” value was found to be 992 ± 563 ng and the “Xu,12h” value was 21,273 ± 12,517 ng. For the same compound, in series [1] (setting [11]), the “Xb,12h” value is recorded as 323.7 ± 155.8 ng and the “Xu,12h” value was determined as 47.3 ± 30.1 ng. Further, the “fold increase in AUC” value in [1] (setting [17]) is 15.6 fold. In series [1] (setting [12]), the AUC is 537 ng·h/mL and the Cmax stood at 140 ± 29.4 ng/mL. In addition, in [1] (setting [13]), the Tmax is 0.583 h. In addition, in series [1] (setting [14]), the AUC was 34.5 ng·h/mL and the Cmax was determined as 67 ± 66.9 ng/mL. For the same compound, the time to peak (Tmax) in [1] (setting [15]) is 0.5 h. Further, the IC50 in series [3] is 470 µM. In [4], the “decrease of low-density lipoprotein (LDL) cholesterol” value is 25%, the decrease of triglycerides is recorded as 35% and the “lowering of total cholesterol” value is 29%. The “stability after glucuronidase and sulfatase treatment” value in [2] (setting [16]) is reported as “stable”. The efflux ratio in the series with Caco-2 cells [5] (100 μM of berberine (alone or in formulation)) is recorded as 7.54. In the series with Caco-2 cells [5] (Caco-2), the “CLint (P-gp-mediated efflux clearance)” value came to 1.61 µL/min and the “Kd (absorptive diffusion clearance)” value was 0.03 µL/min. The “Vmax of B to A transport” value in the series with Caco-2 cells [5] (Caco-2, 1–100 μM, Michaelis–Menten) is given as 10.5 pmol/min. The Km with Caco-2 cells [5] (Caco-2, 1–100 μM, Michaelis–Menten, read-out: Km of B to A transport) turned out to be 6.5 µM. For the same compound, in [6] (Caco-2, pH 7.4, 1 μM of berberine (alone or in formulation)), the efflux ratio at 1 h, 1 μM was found to be 14.1. Besides, the efflux ratio at 1 h, 100 μM in series [6] (Caco-2, pH 7.4, 100 μM of berberine (alone or in formulation)) is 7.5. Moreover, in series [6] (Caco-2, pH 7.4, berberine 10 μM, absence of CsA), the efflux ratio at 1 h, 10 μM worked out at 13.8. Also, the efflux ratio at 1 h, 10 μM in series [6] (Caco-2, pH 7.4, with cyclosporine A 25 μM, berberine 10 μM, presence of CsA 25 μM) was 2.2. Also, the AUCliver in series [7] (liver) is 728.6 ng·h/mL. Further, in series [7] (oral), the “share of oral dose entering the portal vein” value is 0.5%; the “share of oral dose metabolized in the enterocytes” value was “About 43.5%”; the “share of oral dose not absorbed (P-gp-mediated efflux and self-aggregation)” value is “About 56%”. Further, in series [7] (plasma), the AUCplasma was 86.4 ng·h/mL. In addition, in series [8], the “AUC post intraduodenal administration as share of AUC post intraportal vein administration” value is around 0.5%, the “AUC post intraportal vein administration as share of intravenous AUC” value is reported as 72%, the bioavailability is 0.68% and the “oral dose disappeared during gastrointestinal first-pass elimination” value is reported as 99.5%. Further, the IC50 with Caco-2 cells [9] (Homo sapiens, Caco-2, 24 h, read-out: IC50 (cell viability)) came to 933 µM. For the same compound, the “berberine concentration without (significant) cytotoxicity” value in the series on Caco-2 cells [9] (human, 24 h) is reported as “up to 100 μM”.
For thalifendine/berberrubine-sulfate, in series [1] (rat, in vivo, po, 50 mg/kg), the Tmax was 10.67 ± 2.31 h and the “fold increase in AUC” value was 5.8 fold.

The values above are taken from PMC7558015, “Enhanced Intestinal Absorption and Pharmacokinetic Modulation of Berberine and Its Metabolites through the Inhibition of P-Glycoprotein and Intestinal Metabolism in Rats Using a Berberine Mixed Micelle Formulation” (Pharmaceutics, 2020).
